Test results published in patent US20180370927A1, “MICROBIOCIDAL OXADIAZOLE DERIVATIVES” (SYNGENTA PARTICIPATIONS AG, priority 2015, published 2018).

Experiments:
[1] = system: Phakopsora pachyrhizi; assay: Phakopsora pachyrhizi / soybean / leaf disc preventative (Asian soybean rust); format: in vivo; details: foliar, 200 ppm in the applied formulation, soybean leaf disks, assessed 12 to 14 days after application, read-out: disease control compared to untreated control leaf disks
Protocol: (§1) Leaf disks or leaf segments of various plant species are cut from plants grown in a greenhouse. The cut leaf disks or segments are placed in multiwell plates (24-well format) onto water agar. The leaf disks are sprayed with a test solution before (preventative) or after (curative) inoculation. Compounds to be tested are prepared as DMSO solutions (max. 10 mg/mL) which are diluted to the appropriate concentration with 0.025% Tween20 just before spraying. The inoculated leaf disks or segments are incubated under defined conditions (temperature, relative humidity, light, etc.) according to the respective test system. A single evaluation of disease level is carried out 3 to 14 days after inoculation, depending on the pathosystem. Percent disease control relative to the untreated check leaf disks or segments is then calculated.
Example 3: Fungicidal Activity Against Phakopsora pachyrhizi/Soybean/Leaf Disc Preventative (Asian Soybean Rust)
Soybean leaf disks are placed on water agar in multiwell plates (24-well format) and sprayed with the formulated test compound diluted in water. One day after application leaf discs are inoculated by spraying a spore suspension on the lower leaf surface. After an incubation period in a climate cabinet of 24-36 hours in darkness at 20° C. and 75% relative humidity leaf disc are kept at 20° C. with 12 hours light/day and 75% relative humidity. The activity of a compound is assessed as percent disease control compared to untreated when an appropriate level of disease damage appears in untreated check leaf disks (12 to 14 days after application).
(§2) The following compounds at 200 ppm in the applied formulation give at least 80% disease control in this test when compared to untreated control leaf disks under the same conditions, which show extensive disease development.

[2] = system: Glomerella lacenarium (Colletotrichum lacenarium); assay: Glomerella lacenarium (Colletotrichum lacenarium) liquid culture / cucumber / preventative (anthracnose); format: cell-based; details: 20 ppm in the applied formulation, liquid culture in PDB, 24° C., 3 to 4 days after application, read-out: disease control (inhibition of growth, photometric) compared to untreated control
Method in brief: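 At 20 ppm in the applied formulation, compounds were mixed with fungal spores in potato dextrose broth and held at 24° C. After 3–4 days, photometric growth measurement gave percent antifungal activity relative to untreated control.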

[3] = system: Puccinia recondita f. Sp. Tritici; assay: Puccinia recondita f. sp. tritici / wheat / leaf disc preventative (brown rust); format: in vivo; details: foliar, 200 ppm in the applied formulation, wheat leaf segments, preventative, assessed 7 to 9 days after application, read-out: disease control compared to untreated control leaf disks
Method in brief: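 Wheat cv. Kanzler leaf segments on agar sprayed with formulated compound in water, inoculated with rust spores 1 day later. Incubated at 19° C, 75% rh, 12 h light/12 h dark; percent disease control versus untreated scored 7 to 9 days after application; tested at 200 ppm.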

[4] = system: Puccinia recondita f. Sp. Tritici; assay: Puccinia recondita f. sp. tritici / wheat / leaf disc curative (brown rust); format: in vivo; details: foliar, 200 ppm in the applied formulation, wheat leaf segments, curative (applied 1 day after inoculation), assessed 6 to 8 days after application, read-out: disease control compared to untreated control leaf disks
Protocol: as §1
Example 2: Fungicidal Activity Against Puccinia recondita f. Sp. Tritici/Wheat/Leaf Disc Curative (Brown Rust)
Wheat leaf segments cv. Kanzler are placed on agar in multiwell plates (24-well format). The leaf segments are then inoculated with a spore suspension of the fungus. Plates were stored in darkness at 19° C. and 75% relative humidity. The formulated test compound diluted in water was applied 1 day after inoculation. The leaf segments were incubated at 19° C. and 75% relative humidity under a light regime of 12 hours light/12 hours darkness in a climate cabinet and the activity of a compound was assessed as percent disease control compared to untreated when an appropriate level of disease damage appears in untreated check leaf segments (6 to 8 days after application).
as §2

| SMILES | pest or weed control at 200 ppm [1] [%] | inhibition at 20 ppm [2] [%] | pest or weed control at 200 ppm [3] [%] | pest or weed control at 200 ppm [4] [%] |
| --- | --- | --- | --- | --- |
| CCCC(=O)C(=O)N(Cc1ccc(-c2noc(C(F)(F)F)n2)cc1)CC1CC1 [Compound 1.6, N-(cyclopropyl-methyl)-2-oxo-N-[[4-[5-(trifluoromethyl)-1,2,4-oxadiazol-3-yl]phenyl]methyl]pentanamide] | ≥ 80 | ≥ 80 | – | – |
| CCCCON(Cc1ccc(-c2noc(C(F)(F)F)n2)cc1)C(=O)C(=O)CC [Compound 1.30, N-butoxy-2-oxo-N-[[4-[5-(trifluoromethyl)-1,2,4-oxadiazol-3-yl]phenyl]methyl]butanamide] | ≥ 80 | ≥ 80 | – | – |
| CCC(=O)C(=O)N(C)c1ccc(-c2noc(C(F)(F)F)n2)cc1 [Compound 1.34, N-methyl-2-oxo-[4-[5-(trifluoromethyl)-1,2,4-oxadiazol-3-yl]phenyl]butanamide] | ≥ 80 | – | – | – |
| O=C(NCc1ccc(-c2noc(C(F)(F)F)n2)c(F)c1)C(=O)c1ccccc1 [Compound 1.42, N-[[3-fluoro-4-[5-(trifluoromethyl)-1,2,4-oxadiazol-3-yl]phenyl]methyl]-2-oxo-2-phenyl-acetamide] | ≥ 80 | ≥ 80 | ≥ 80 | – |
| O=C(NCc1ccc(-c2noc(C(F)(F)F)n2)c(F)c1F)C(=O)c1ccccc1 [Compound 1.46, N-[[2,3-difluoro-4-[5-(trifluoromethyl)-1,2,4-oxadiazol-3-yl]phenyl]methyl]-2-oxo-2-phenyl-acetamide] | ≥ 80 | ≥ 80 | ≥ 80 | – |
| O=C(NCc1ccc(-c2noc(C(F)(F)F)n2)c(F)c1F)C(=O)c1cccs1 [Compound 1.48, N-[[2,3-difluoro-4-[5-(trifluoromethyl)-1,2,4-oxadiazol-3-yl]phenyl]methyl]-2-oxo-2-(2-thienyl)acetamide] | ≥ 80 | ≥ 80 | ≥ 80 | – |
| CON(Cc1ccc(-c2noc(C(F)(F)F)n2)cc1F)C(=O)C(=O)c1ccccc1 [Compound 1.54, N-[[2-fluoro-4-[5-(trifluoromethyl)-1,2,4-oxadiazol-3-yl]phenyl]methyl]-N-methoxy-2-oxo-2-phenyl-acetamide] | ≥ 80 | ≥ 80 | ≥ 80 | – |
| CON(Cc1ccc(-c2noc(C(F)(F)F)n2)cc1F)C(=O)C(=O)c1cccs1 [Compound 1.56, N-[[2-fluoro-4-[5-(trifluoromethyl)-1,2,4-oxadiazol-3-yl]phenyl]methyl]-N-methoxy-2-oxo-2-(2-thienyl)acetamide] | ≥ 80 | ≥ 80 | ≥ 80 | – |
| CON(Cc1ccc(-c2noc(C(F)(F)F)n2)cc1F)C(=O)C(=O)C(C)(C)C [Compound 1.57, N-[[2-fluoro-4-[5-(trifluoromethyl)-1,2,4-oxadiazol-3-yl]phenyl]methyl]-N-methoxy-3,3-dimethyl-2-oxo-butanamide] | ≥ 80 | ≥ 80 | ≥ 80 | – |
| O=C(NCc1ccc(-c2noc(C(F)(F)F)n2)cc1Cl)C(=O)c1ccccc1 [Compound 1.59, N-[[2-chloro-4-[5-(trifluoromethyl)-1,2,4-oxadiazol-3-yl]phenyl]methyl]-2-oxo-2-phenyl-acetamide] | ≥ 80 | ≥ 80 | ≥ 80 | – |
| CC(C)CC(=O)C(=O)NCc1ccc(-c2noc(C(F)(F)F)n2)cc1Cl [Compound 1.61, N-[[2-chloro-4-[5-(trifluoromethyl)-1,2,4-oxadiazol-3-yl]phenyl]methyl]-4-methyl-2-oxo-pentanamide] | ≥ 80 | – | ≥ 80 | – |
| O=C(NCc1ccc(-c2noc(C(F)(F)F)n2)cc1Cl)C(=O)c1cccs1 [Compound 1.62, N-[[2-chloro-4-[5-(trifluoromethyl)-1,2,4-oxadiazol-3-yl]phenyl]methyl]-2-oxo-2-(2-thienyl)acetamide] | ≥ 80 | ≥ 80 | ≥ 80 | – |
| CC(C)(C)C(=O)C(=O)NCc1ccc(-c2noc(C(F)(F)F)n2)cc1Cl [Compound 1.63, N-[[2-chloro-4-[5-(trifluoromethyl)-1,2,4-oxadiazol-3-yl]phenyl]methyl]-3,3-dimethyl-2-oxo-butanamide] | ≥ 80 | ≥ 80 | ≥ 80 | – |
| Cc1cc(-c2noc(C(F)(F)F)n2)ccc1CNC(=O)C(=O)c1ccccc1 [Compound 1.65, N-[[2-methyl-4-[5-(trifluoromethyl)-1,2,4-oxadiazol-3-yl]phenyl]methyl]-2-oxo-2-phenyl-acetamide] | ≥ 80 | – | ≥ 80 | – |
| Cc1cc(-c2noc(C(F)(F)F)n2)ccc1CNC(=O)C(=O)c1cccs1 [Compound 1.66, N-[[2-methyl-4-[5-(trifluoromethyl)-1,2,4-oxadiazol-3-yl]phenyl]methyl]-2-oxo-2-(2-thienyl)acetamide] | ≥ 80 | – | ≥ 80 | – |
| Cc1cc(-c2noc(C(F)(F)F)n2)ccc1CNC(=O)C(=O)C(C)(C)C [Compound 1.67, 3,3-dimethyl-N-[[2-methyl-4-[5-(trifluoromethyl)-1,2,4-oxadiazol-3-yl]phenyl]methyl]-2-oxo-butanamide] | ≥ 80 | ≥ 80 | – | – |
| O=C(NCc1c(F)cc(-c2noc(C(F)(F)F)n2)cc1F)C(=O)c1ccccc1 [Compound 1.68, N-[[2,6-difluoro-4-[5-(trifluoromethyl)-1,2,4-oxadiazol-3-yl]phenyl]methyl]-2-oxo-2-phenyl-acetamide] | ≥ 80 | ≥ 80 | ≥ 80 | – |
| O=C(NCc1ccc(-c2noc(C(F)(F)F)n2)c(F)c1F)C(=O)c1ccco1 [Compound 1.81, N-[[2,3-difluoro-4-[5-(trifluoromethyl)-1,2,4-oxadiazol-3-yl]phenyl]methyl]-2-(2-furyl)-2-oxo-acetamide] | ≥ 80 | ≥ 80 | – | – |
| Cc1cc(-c2noc(C(F)(F)F)n2)ccc1CNC(=O)C(=O)c1ccco1 [Compound 1.86] | ≥ 80 | – | ≥ 80 | – |
| O=C(NCC1COCCO1)C(=O)Nc1ccc(-c2noc(C(F)(F)F)n2)cc1 (centres unmarked) [Compound 4.19, N-(1,4-dioxan-2-ylmethyl)-N′-[4-[5-(trifluoromethyl)-1,2,4-oxadiazol-3-yl]phenyl]oxamide] | ≥ 80 | – | ≥ 80 | – |
| NC(=O)C(=O)NCc1ccc(-c2noc(C(F)(F)F)n2)c(F)c1F [Compound 4.84, N′-[[2,3-difluoro-4-[5-(trifluoromethyl)-1,2,4-oxadiazol-3-yl]phenyl]methyl] oxamide] | ≥ 80 | ≥ 80 | – | – |
| NC(=O)C(=O)NCCc1ccc(-c2noc(C(F)(F)F)n2)cc1 [Compound 4.85, N′-[2-[4-[5-(trifluoromethyl)-1,2,4-oxadiazol-3-yl]phenyl]ethyl] oxamide] | ≥ 80 | ≥ 80 | – | – |
| CONC(=O)C(=O)N(Cc1ccc(-c2noc(C(F)(F)F)n2)cc1)C1CC1 [Compound 4.103, N′-cyclopropyl-N-methoxy-N′-[[4-[5-(trifluoromethyl)-1,2,4-oxadiazol-3-yl]phenyl]methyl] oxamide] | – | ≥ 80 | ≥ 80 | ≥ 80 |
| CCN(Cc1ccc(-c2noc(C(F)(F)F)n2)cc1)C(=O)C(=O)NOC [Compound 4.107, N'-ethyl-N-methoxy-N′-N′-[[4-[5-(trifluoromethyl)-1,2,4-oxadiazol-3-yl]phenyl]methyl] oxamide] | – | ≥ 80 | ≥ 80 | ≥ 80 |
